Laboratory results reported in patent publication US20110306638A1, “BENZISOXAZOLE PIPERIDINYL DERIVATIVES, PHARMACEUTICAL COMPOSITIONS COMPRISING THE DERIVATIVES AND THEIR USE” (NHWA PHARMA. CORPORATION, priority 2008, published 2011).
Marks after values point to notes of the source that are not given here.

Key:
Kunming mice = experiment: Hot-plate test in mice; format: in vivo; conditions: 1 h post dose
Method: Kunming mice, SPF KM mice were purchased from […] SLAC LABORATORY ANIMAL CO. LTD and kept in normal environment.
The compounds were dissolved in water for injection at a concentration of 4 mg/ml, 2 mg/ml and 1 mg/ml and were given subcutaneously to animals.
Three different doses (10, 20, and 40 mg/kg) were administered to the test groups.
Morphine was used as a positive control and hot plate test was used.
30-40 mice (half male and half female) weighed from 18 to 23 gram were used. First, each mouse was placed on a hot plat at 55° C. to determine basic pain threshold for 2-3 times. Those animals with basic pain threshold of 5-30 s were qualified, unqualified mice were not used. 30 qualified mice were divided into five groups, including negative control group, positive control group, low-dose group, medium-dose group and high-dose group:
Mice in test groups received test sample solution (10 mg/kg, 20 mg/kg, 40 mg/kg) via subcutaneous injection in the neck. Positive control group received subcutaneous injection of morphine (2 mg/kg). One hour later, pain threshold values were determined for mice in each group as post-drug pain threshold. Percentage increase in pain threshold was calculated according to the following equation: […]

[1] = Animal model study of II-9 (repeated dosing, addiction potential, oral absorption); format: in vivo
5-HT2A receptor = molecular target: T1, 5-HT2A receptor (Homo sapiens, UniProt P28223); experiment: In-vitro competitive binding to 5-HT2A receptor, [3H]-Ketanserin, transformed HEK293 cells
T1 construct: expressed in transfected cells; host or cells: HEK293
Method: All test samples were dissolved in DMSO at a concentration of 0.01 mol/L, and then diluted with deionized water to 100 umol/L.
HEK293 cells were transformed with plasmid carriers containing the gene coding for 5-HT2A receptor protein by using calcium phosphate transformation. Stable cell strains which could stably express 5-HT2A receptor protein were obtained from the transformed cells by cultivating in a culture media containing G418, selecting monoclones of the cell and performing radioactive ligand binding assay.
Beckman LS 6500 Scintillation Counter.
HEK-293 cells were infected with recombined viruses containing various genes described above. […] Cells were centrifuged at 1000 rpm for 5 min Culture media was discarded, and cell bodies were collected and stored at −20° C. in a freezer. The cell bodies were resuspended with Tris-HCl reaction buffer during assay.
After incubation at 37° C. for 15 min, the reaction mixture was immediately transferred into ice bath to terminate the reaction; the reaction mixture was quickly filtered through GF/C glass cellulose filter on a Millipore cell sample collector, and was then washed with eluting solution (50 mM Tris-HCl, PH 7.7, 3 ml×3) and dried in a microwave for 8-9 min. The filter was transferred into a 0.5 ml centrifuge tube, and 500 μl lipid soluble scintillation fluid was added. The centrifuge tube was allowed to stand in darkness for more than 30 min. Radioactivity was determined by counting Inhibition percentage of each compound on isotope ligand binding was calculated according to the following equation:
inhibition percentage(I %)=cpm of overall binding tube−cpm of compound/cpm of overall binding tube−cpm of nonspecific binding tube×100%.
Each compound was tested in two duplicate test tubes and two separate tests were performed.

[2] = molecular target: opioid receptor subtype μ (Homo sapiens, UniProt P35372); experiment: Competitive binding to opioid receptor subtype μ, [3H]Diprenorphine
Method: (§1) The respective test compounds were added to the sample tube (final concentration of 10^−5M), incubated at 37° C. for 30 min and placed in ice bath to terminate the reaction. The reaction mixture was filtered through GF/C (Whatman) glass fiber filter by vacuum filtration on a Millipore sample collector. The filter was washed three times with 50 mM Tris-HCl (pH7.4), each with 4 ml; dried and transferred into a 0.5 ml Eppendorf tube, in which 0.5 ml lipophilic scintillation fluid was added. Radioactivity was detected by a LS6500 scintillation counter. Each concentration had three duplicate test tubes and each separate test was repeated 3 to 4 times.
(§2) Specific binding CMP value for each sample tube=overall binding CPM value for each sample tube−CPM value of non-specific binding tube.
(§3) [Inhibition percentage of competitive binding between the test compound and different opioid receptor subtypes (%)=(100%−specific binding (CPM value)of sample tube/specific binding(CPM value)of solvent group×100%)]
(§4) Average was taken for each test drug from three duplicate tubes; each test was repeated two or more times.

[3] = Acute toxicity, single intragastric administration to mice; conditions: mouse, in vivo, po, Bliss method
From the text: Statistics were made according to Bliss method (“Experimental Design and Statistical Basis for Drug Evaluation”, Changxiao Liu, Ruiyuan Su, first edition, Military Medical Science Press, 1993, 80-90).

[4] = molecular target: opioid receptor subtype δ (Homo sapiens, UniProt P41143); experiment: Competitive binding to opioid receptor subtype δ, [3H]Diprenorphine
Method: as §1, §2, §3
Average was taken for each test drug from three duplicate tubes; each test was repeated two or more times. Data were presented as mean±SE and statistical comparison was made by ANOVA.

mice = experiment: Sedative effects in mice (spontaneous activities); format: in vivo; set-up: unit not given here; conditions: single dose 20 mg/kg
Method: Spontaneous activities of the mice were recorded by alternating current tube, Sedative effects were tested after single dose (20 mg/kg).

[5] = molecular target: opioid receptor subtype κ (Homo sapiens, UniProt P41145); experiment: Competitive binding to opioid receptor subtype κ, [3H]Diprenorphine
Method: as §1, §2, §3, §4

[6] = molecular target: T2, 5-HT reuptake by brain synapses (Rattus norvegicus, UniProt P31652); experiment: [3H]5-HT reuptake test in rat brain synapses; format: biochemical
T2 construct: forehead cortex was obtained for [^3H]5-HT, [^3H]NA reuptake test; from tissue; host or cells: rat (SD) forebrain cortex synaptosomes
Method: The method was as follows:
Male SD rats were killed by cervical dislocation, heads were immediately cut and brains were obtained and put on ice, related brain tissues were dissected (forehead cortex was obtained for [^3H]5-HT, [^3H]NA reuptake test, corpus striatum was obtained for [^3H]DA reuptake).
After the sample was weighed, 10 folds (V/W) ice cold 0.32 mol/L sucrose solution was added.
According to [a. […] 5-HT was added and after incubation in water bath at 37° C. for 10 min, the reaction mixture was immediately taken out of the water bath and 2 ml ice cold 150 mmol/L Tris-HCl was added to terminate the reaction. The sample was collected on a round glass fiber filter by vacuum filtration and washed three times with 3 ml ice cold Tris-HCl buffer. The filter membrane was removed, dried in a far-infrared oven for 15 min, then transferred into a EP tube, in which 1.5 ml scintillation fluid was added, left overnight and detected by a scintillation counter. The test sample was not added into solvent controlled overall binding tube or non-specific binding tube. 50 μl solvent was added into the overall binding tube, and in [^3H] 5-HT reuptake test, 600 μmol/L cocaine was added into the non-specific binding tube.

[7] = affinity to 5-HT2A receptor, concentration gradient test

## N#Cc1ccc2ccn(CCCCN3CCC(c4noc5cc(F)ccc45)CC3)c2c1 [II-9, 1-(4-(4-(6-fluorobenzo[d]isoxazol-3-yl)piperidin-1-yl)butyl)-1H-indole-6-carbonitrile]
Kunming mice; 10 mg/kg S.c.
  Percentage increase in pain threshold: 97.98* %
Kunming mice; 20 mg/kg S.c.
  Percentage increase in pain threshold: 220.49** %
Kunming mice; 40 mg/kg S.c.
  Percentage increase in pain threshold: 229.39** %
[1]; after repeated dosing
  drug tolerance: No drug tolerance is observed
[1]; in vivo
  potential for addiction: rather low
[1]; oral
  absorption through oral administration: well absorbed
5-HT2A receptor; [7]
  IC50: 2.92 nM
  Ki: 1.97 nM
5-HT2A receptor; compared with Aripiprazole
  inhibitory activity on 5-HT2A (in words): potent inhibitory activities
5-HT2A receptor; read-out: 5-HT2A [3H]-Ketanserin inhibition percentage
  inhibition at 10 µM: 99.3%
[2]
  affinity to opioid receptor subtype μ (in words): no obvious affinity
[2]; tested concentration 10^−5 mol/L, read-out: μ inhibition percentage of competitive binding
  inhibition at 10 µM: 53.4 ± 0.7%
[3]
  LD50: 800 mg/kg
[4]
  affinity to opioid receptor subtype δ (in words): no obvious affinity
[4]; tested concentration 10^−5 mol/L, read-out: δ inhibition percentage of competitive binding
  inhibition at 10 µM: 0%
mice
  Sedative effect: 47*
[5]
  affinity to opioid receptor subtype κ (in words): no obvious affinity
[5]; tested concentration 10^−5 mol/L, read-out: κ inhibition percentage of competitive binding
  inhibition at 10 µM: 28.5 ± 1.3%
[6]; at 10 μmol/L, compared with Dutoxetine
  inhibitory activity on 5-HT reuptake (in words): potent inhibitory activities
[6]; final concentration 10 umol/L, rat brain synapses, read-out: 5-HTU [3H] 5-HT reuptake inhibition percentage Mean
  inhibition at 10 µM: 105%
